Experiments:
[1] = system: single combed White Leghorn hens; assay: Egg parameters (specific gravity, total egg weight, shell weight); assay type: in vivo
Description: During the experiment, two birds were assigned to each cage (12"×18"). The hens were maintained in their cages for two weeks prior to the molt. They received a 17 hour light: 7 hour dark photoperiod throughout this phase of the experiment. During this time, the following parameters were measured:(a) body weight (weekly); (b) feed consumption (all hens received a common layer ration, and the feed consumed during this two week period was measured); (C) production records (daily); and (d), total egg weight, egg shell weight, and egg specific gravity (measured on three consecutive days each week). Serum samples were taken once, from 10 randomly selected hens from each treatment group, and saved for future study.
(§1) After the two week pre-molt adjustment period, the hens were randomly assigned to each of eight different groups. These treatment groups were as follows: (1) control, (2) forced molt, (3) chemical molt-injected, (4) vehicle control-injected, (5) chemical molt-microcapsules A, (6) vehicle control-microcapsules A, (7) chemical molt-microcapsules B, and (8) vehicle control-microcapsules B.
(§2) [D-Trp^6 ]LHRH was used as the LHRH receptor ligand for the chemical molt groups. The "chemical molt-injected" group received intramuscular (breast) injections of 25 micrograms/day of [D-Trp^6 ]LHRH for 10 consecutive days beginning on day 14. Alternate pectoral (breast) areas were injected each day. The "chemical molt-microcapsule" groups received a single intramuscular (breast) injection of microencapsulated [D-Trp^6 ]LHRH on day zero. This preparation of microcapsules provided a controlled release of 25 micrograms [D-Trp^6 ]LHRH per day for 15 consecutive days.
(§3) On day 14, the microcapsule injected groups received intramuscular injections of lactide/glycolide copolymer microcapsules which had [D-Trp^6 ]LHRH incorporated therein. The ligand-containing microcapsules administered the "Microcapsules A" group were prepared and supplied by Debiopharm (Lausanne, Switzerland). These microcapsules were prepared by a phase-separation process to produce a free-flowing powder of spherical particles consisting of [D-Trp^6 ]LHRH (2% wt/wt) distributed within a polymeric matrix of 53:47(mol %) poly(DL-lactide-co-glycolide) (98% wt/wt) with an inherent viscosity of 0.7 dl/g. The microcapsules were 50 micrometers or less in diameter. […] Photomicrographs of similar microcapsules are presented in T. W. Redding, et al., Proc. Natl. Acad. Sci. U.S.A., 81, 5845 (Sept. 1984).
The remaining hens were maintained for a three month production period, during which the following parameters were measured: a. body weight (weekly for the first month and then twice a month); b. feed consumption (measured weekly); c. egg production (measured daily); and d. egg weight, shell weight and specific gravity (measured for three consecutive days each week for the first month, and then three consecutive days every two weeks).

LHRH receptor = target: T1, LHRH receptor (Homo sapiens, UniProt P30968); settings: described in U.S. Pat. No. 4,010,125; cited from earlier work
T1 sequence (P30968 1-328): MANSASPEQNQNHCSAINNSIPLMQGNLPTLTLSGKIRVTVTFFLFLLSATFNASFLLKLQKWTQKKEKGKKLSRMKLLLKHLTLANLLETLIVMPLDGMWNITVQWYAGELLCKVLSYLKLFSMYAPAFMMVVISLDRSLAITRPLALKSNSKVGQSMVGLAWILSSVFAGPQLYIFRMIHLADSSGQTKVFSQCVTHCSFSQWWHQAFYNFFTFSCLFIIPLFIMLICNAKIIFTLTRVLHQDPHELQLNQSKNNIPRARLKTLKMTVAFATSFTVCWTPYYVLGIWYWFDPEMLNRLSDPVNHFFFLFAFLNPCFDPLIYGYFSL

[2] = system: single combed White Leghorn hens; assay type: in vivo
Text: as §1, §2, §3
After the forced molt group achieved a 30% body weight loss, i.e., after 10 days of fasting, six hens from each group were necropsied. The liver, abdominal adipose tissue (fat pad), ovary plus ova and oviduct weights were measured. The remaining forced molt hens received a limited quantity of feed for two days, and were then fed ad libitum. For all groups, body weight and feed consumption were measured weekly. The lighting regime was increased, at weekly intervals, from natural day length to 17 hour light: seven hour dark. For the forced molt and chemical molt groups, when the first egg was produced after the molt, body weights were measured and body weights taken for the 10 selected birds.

[3] = Week 1 = days zero-2, before treatment
[4] = Week 2 = days 6-8, before treatment
[5] = hens killed immediately after the molt, Day 23

Substance: [D-Trp^6 ]LHRH [D-Trp^6 --LHRH]
- EGG SHELL WEIGHT [1, 3]: 5.46 g
- EGG SPECIFIC GRAVITY [1, 3]: 1.079 (g/cm)^3
- TOTAL EGG WEIGHT [1, 3]: 66.04 g
- EGG SHELL WEIGHT [1, 4]: 5.82 g
- EGG SPECIFIC GRAVITY [1, 4]: 1.082 (g/cm)^3
- TOTAL EGG WEIGHT [1, 4]: 67.72 g
- EGG SHELL WEIGHT ([1]; Week 3 = days 40-42): 5.15 g
- EGG SPECIFIC GRAVITY ([1]; Week 3 = days 40-42): 1.075 (g/cm)^3
- TOTAL EGG WEIGHT ([1]; Week 3 = days 40-42): 64.38 g
- EGG SHELL WEIGHT ([1]; Week 4 = days 47-49): 5.61 g
- EGG SPECIFIC GRAVITY ([1]; Week 4 = days 47-49): 1.079 (g/cm)^3
- TOTAL EGG WEIGHT ([1]; Week 4 = days 47-49): 68.27 g
- EGG SHELL WEIGHT ([1]; Week 5 = days 54-56): 5.79 g
- EGG SPECIFIC GRAVITY ([1]; Week 5 = days 54-56): 1.079 (g/cm)^3
- TOTAL EGG WEIGHT ([1]; Week 5 = days 54-56): 68.81 g
- EGG SHELL WEIGHT ([1]; Week 6 = days 61-63): 5.65 g
- EGG SPECIFIC GRAVITY ([1]; Week 6 = days 61-63): 1.080 (g/cm)^3
- TOTAL EGG WEIGHT ([1]; Week 6 = days 61-63): 67.4 g
- EGG SHELL WEIGHT ([1]; Week 7 = days 75-77): 5.59 g
- EGG SPECIFIC GRAVITY ([1]; Week 7 = days 75-77): 1.079 (g/cm)^3
- TOTAL EGG WEIGHT ([1]; Week 7 = days 75-77): 67.19 g
- quality of eggs produced after the molt ([1]; compared with conventional Forced Molted Group): as good in quality as the eggs produced by the conventional Forced Molted Group
- duration of activity (LHRH receptor): prolonged activity
- involution of reproductive tract ([2]; both treated groups): exhibited involution of their reproductive tracts
- Ovary Wt. [2, 5]: 10.38 g
- Oviduct Wt. [2, 5]: 17.65 g
- Abdominal Adipose Tissue Wt. ([2]; in vivo): 55.73 g
- Body Wt. ([2]; in vivo): 1.784 kg

Reference: patent US4761398A, “Method of inducing birds to molt” (Embrex, Inc., priority 1986, dated 1988)
